Where two headings read alike, the source gives them in different places.
Test system: osteoclast differentiation
Experiment: Inhibitory effects on osteoclast differentiation (co-culture of bone marrow cells with osteoblast, TRAP staining)
Type: cell-based, mice
Conditions: for inhibition at 1 µM: Mus musculus, Osteoclast, 168 h, read-out: % inhibitory activity on osteoclastogenesis
Protocol: The effect of benzamidine derivatives of the present invention on osteoclast proliferation and differentiation process was evaluated via co-culture with osteoblast.
Tibia and Femora were aseptically ectomized from male ddY mice of 6-8 weeks to harvest bone marrow cells by using a syringe (21G, Korea Green Cross).
The bone marrow cells were suspended in 5 mL α-MEM medium (Gibco BRL Co.) containing sodium bicarbonate (2.0 g/L), streptomycin (100 mg/L) and penicillin ([…]). The harvested cells were centrifuged at 600×g for 5 mins to collect the whole quantity. To remove the red blood cells within bone marrow cells, 3 mL of Tris HCl (0.83% NH4Cl, pH7.5) was added and well mixed. After centrifuging above cells, the numbers of bone marrow cells were counted and then, the bone marrow cells were immediately used for co-culture system with osteoblast.
The calvaria were aseptically ectomized from neonate ICR mice of 1˜2 days, washed with PBS solution and incubated with a mixture of enzyme solution (0.2% collagenase and 0.1% dispase) at 37° C. gentle shaker. This procedure was sequentially repeated (10, 10, 10, 20, 20 and 20 mins), and then the calvaria cells having the characteristics of osteoblast mostly released from III-VI digestion groups were collected and washed with the medium (serum-free α-MEM). The washed cells were cultivated in α-MEM medium containing 10% FBS for 2˜3 days. After subculturing, these cells were used for this experiment, and diluted to reach the concentration of 1×10^6 cell/mL for storage at −70° C.
Benzamidine derivatives of the present invention were dissolved in a sterile distilled water or ethanol to make desired concentrations following dilution. The final volume of specimen added to the medium was determined at the ratio of 1:1000.
Bone marrow cells prepared, in the above and osteoblast from calvaria were co-cultured for osteoclast differentiation. Both bone marrow cells (25,000 cells/cm^2) and osteoblast (10,000 cells/cm^2) were plated on a 96 well plate in α-MEM medium containing FBS with specimen, and then cultured with test materials for 7 days. Differentiation factors, such as dexamethasone (10^−7M) and vitamin D3 (10^−8M), were also continuously added to the medium from the first day of cultivation. The medium was changed with fresh media containing a mixture of specimens and differentiation factors every 2˜3 day.
TRAP was used as a marker to measure osteoclast in consideration of its characteristics showing a positive reaction to TRAP staining solution. TRAP staining solution was prepared in a manner that 5 mg of naphtol AS-MS phosphate (sigma N-4875), a substrate and 25 mg of coloring agent (Fast Red Violet LB salt) were dissolved in N,N-dimethylformamide (about 0.5 mL), 0.1N NaHCO3 buffer solution (50 mL) containing 50 mM tartaric acid was added, and the reaction mixture was stored at refrigerator prior to use.
After culturing the cells for 7 days, the medium was removed from the wells, the cells were once washed with PBS solution and fixed to PBS containing 10% formalin for 2˜5 mins. The cells were fixed again in a mixed solution of ethanol and acetone (1/1) for about 1 min, and dried off. The cells were further treated by TRAP staining solution for 15 mins and washed with PBS. The experimental results were measured by counting the number of osteoclasts with 3 or more nuclei showing TRAP-positive reaction under a microscopic examination. Each of tests was confirmed over three times for gaining more reliable data.
As shown in the following table 7, the inhibitory effect of each experimental group on the differentiation of osteoclast versus controls was expressed by inhibitory percentage value.

[1] = 1 m, co-culture of bone marrow cells and osteoblast, 7 days, TRAP-positive osteoclasts versus controls
[2] = co-culture of bone marrow cells and osteoblast, 7 days, TRAP-positive osteoclasts versus controls

With CNc1nc(-c2ccc(OCCCCCOc3ccc(C(=N)NO)cc3)cc2)cs1 [Example 116, N-hydroxy-4-(5-[4-(2-methylamino-1,3-thiazol-4-yl)phenoxy]pentoxy)-benzamidine] the inhibition at 1 µM [1] was 51.3%.
With CCc1sc(NCc2cccnc2)nc1-c1ccc(OCCCCCOc2ccc(C(=N)NO)cc2)cc1 [Example 117] the “% inhibitory activity on osteoclastogenesis” value (shortened to “% inhibitory activity”) [2] was 2.7%.
With COCCN(CCOC)c1nc(-c2ccc(OCCCCCOc3ccc(C(=N)NO)cc3)cc2)c(C)s1 [Example 122, N-hydroxy-4-(5-[4-(2-(bis-(2-methoxyethyl)-amino)-5-methyl-1,3-thiazol-4-yl)phenoxy]pentoxy)-benzamidine] the inhibition at 1 µM [1] was 55.8%.
For Cc1sc(N(C)CCN2CCOCC2)nc1-c1ccc(OCCCCCOc2ccc(C(=N)NO)cc2)cc1 [Example 123, N-hydroxy-4-(5-[4-(5-methyl-2-(methyl-(2-morpholinoethyl)-amino)-1,3-thiazol-4-yl)phenoxy]pentoxy)-benzamidine], the inhibition at 1 µM [1] was 26.3%.
Work on CCN(Cc1ccccc1)c1nc(-c2ccc(OCCCCCOc3ccc(C(=N)NO)cc3)cc2)c(C)s1 [Example 127, N-hydroxy-4-(5-[4-(2-(benzyl-ethyl-amino)-5-methyl-1,3-thiazol-4-yl)phenoxy]pentoxy)-benzamidine] yielded an inhibition at 1 µM [1] of 41.5%.
With Cc1sc(N(CCO)CCO)nc1-c1ccc(OCCCCCOc2ccc(C(=N)NO)cc2)cc1 [Example 128, N-hydroxy-4-(5-[4-(2-(bis-(2-hydroxyethyl)-amino)-5-methyl-1,3-thiazol-4-yl)phenoxy]pentoxy)-benzamidine] the inhibition at 1 µM [1] was 75.5%.
Work on CCc1sc(N(C)CCN2CCOCC2)nc1-c1ccc(OCCCCCOc2ccc(C(=N)NO)cc2)cc1 [Example 131, N-hydroxy-4-(5-[4-(5-ethyl-2-(methyl-(2-morpholinoethyl)-amino)-1,3-thiazol-4-yl)phenoxy]pentoxy)-benzamidine] yielded an inhibition at 1 µM [1] of 69%.
Work on CCc1sc(N(CC)Cc2ccccc2)nc1-c1ccc(OCCCCCOc2ccc(C(=N)NO)cc2)cc1 [Example 135, N-hydroxy-4-(5-[4-(2-(benzyl-ethyl-amino)-5-ethyl-1,3-thiazol-4-yl)phenoxy]pentoxy)-benzamidine] yielded an inhibition at 1 µM [1] of 48.6%.
In the case of CCc1sc(N(Cc2cccnc2)Cc2cccnc2)nc1-c1ccc(OCCCCCOc2ccc(C(=N)NO)cc2)cc1 [Example 137], the “% inhibitory activity” value [2] is reported as 62.7%.
CC(C)c1sc(N(C)CCO)nc1-c1ccc(OCCCCCOc2ccc(C(=N)NO)cc2)cc1 [Example 140, N-hydroxy-4-(5-[4-(2-((2-hydroxyethyl)-methyl-amino)-5-isopropyl-1,3-thiazol-4-yl)phenoxy]pentoxy)-benzamidine] was tested, and the inhibition at 1 µM [1] was 18.9%.
CCS(=O)(=O)N(C)c1nc(-c2ccc(OCCCCCOc3ccc(C(=N)NO)cc3)cc2)c(C(C)C)s1 [Example 142, N-hydroxy-4-(5-[4-(2-(ethanesulfonyl-methyl-amino)-5-isopropyl-1,3-thiazol-4-yl)phenoxy]pentoxy)-benzamidine] gave an inhibition at 1 µM [1] of 54.1%.
Work on CCCCc1sc(N(C)CCO)nc1-c1ccc(OCCCCCOc2ccc(C(=N)NO)cc2)cc1 [Example 143, N-hydroxy-4-(5-[4-(5-butyl-2-((2-hydroxyethyl)-methyl-amino)-1,3-thiazol-4-yl)phenoxy]pentoxy)-benzamidine] yielded an inhibition at 1 µM [1] of 69.5%.
For CCCCc1sc(N(C)CCN2CCOCC2)nc1-c1ccc(OCCCCCOc2ccc(C(=N)NO)cc2)cc1 [Example 144, N-hydroxy-4-(5-[4-(5-butyl-2-(methyl-(2-morpholinoethyl)amino)-1,3-thiazol-4-yl)phenoxy]pentoxy)-benzamidine], the inhibition at 1 µM [1] was 94.4%.
CN(CCN1CCOCC1)c1nc(-c2ccc(OCCCCCOc3ccc(C(=N)NO)cc3)cc2)c(CC2CCCC2)s1 [Example 148, N-hydroxy-4-(5-[4-(5-cyclopentylmethyl-2-(methyl-(2-morpholinoethyl)amino)-1,3-thiazol-4-yl)phenoxy]pentoxy)-benzamidine] was tested, and the inhibition at 1 µM [1] was 90.1%.
With CCCN(CCC)c1nc(-c2ccc(OCCCCCOc3ccc(C(=N)NO)cc3)cc2)c(CC2CCCC2)s1 [Example 149, N-hydroxy-4-(5-[4-(5-cyclopentylmethyl-2-dipropylamino-1,3-thiazol-4-yl)phenoxy]pentoxy)-benzamidine] the inhibition at 1 µM [1] was 79.2%.
CCCCc1sc(N(CC)CC)nc1-c1ccc(OCCCCCOc2ccc(C(=N)NO)cc2)cc1 [Example 150, N-hydroxy-4-(5-[4-(5-butyl-2-diethylamino-1,3-thiazol-4-yl)phenoxy]pentoxy)-benzamidine] showed an inhibition at 1 µM [1] of 95.4%.
CN(CCN1CCOCC1)c1nc(-c2ccc(OCCCCCOc3ccc(C(=N)NO)cc3)cc2)c(C2CCCC2)s1 [Example 153, N-hydroxy-4-(5-[4-(5-cyclopentyl-2-[methyl-(2-morpholinoethyl)amino]-1,3-thiazol-4-yl)phenoxy]pentoxy)-benzamidine] gave an inhibition at 1 µM of 96.4%.
Work on CC(C)Cc1sc(N(C)CCN2CCOCC2)nc1-c1ccc(OCCCCCOc2ccc(C(=N)NO)cc2)cc1 [Example 154, N-hydroxy-4-(5-[4-(5-isobutyl-2-[methyl-(2-morpholinoethyl)amino]-1,3-thiazol-4-yl)phenoxy]pentoxy)-benzamidine] yielded an inhibition at 1 µM [1] of 9.3%.
In the case of CCN(CC)c1nc(-c2ccc(OCCCCCOc3ccc(C(=N)NO)cc3)cc2)c(C2CCCC2)s1 [Example 156, N-hydroxy-4-(5-[4-(5-cyclopentyl-2-diethylamino-1,3-thiazol-4-yl)phenoxy]pentoxy)-benzamidine], the inhibition at 1 µM [1] is reported as 15.6%.
CCCN(CCC)c1nc(-c2ccc(OCCCCCOc3ccc(C(=N)NO)cc3)cc2)c(C(C)C)s1 [Example 157, N-hydroxy-4-(5-[4-(5-isopropyl-2-dipropylamino-1,3-thiazol-4-yl)phenoxy]pentoxy)-benzamidine] was tested, and the inhibition at 1 µM [1] was 92.3%.
In the case of CCN(CC)c1nc(-c2ccc(OCCCCCOc3ccc(C(=N)NO)cc3)cc2)c(CC2CCCC2)s1 [Example 160, N-hydroxy-4-(5-[4-(5-cyclopentylmethyl-2-diethylamino-1,3-thiazol-4-yl)phenoxy]pentoxy)-benzamidine], the inhibition at 1 µM [1] is reported as 83.7%.
CC(C)c1sc(N(C)C)nc1-c1ccc(OCCCCCOc2ccc(C(=N)NO)cc2)cc1 [Example 161, N-hydroxy-4-(5-[4-(5-isopropyl-2-dimethylamino-1,3-thiazol-4-yl)phenoxy]pentoxy)-benzamidine] gave an inhibition at 1 µM [1] of 89.1%.
In the case of CCN(CC)c1nc(-c2ccc(OCCCCCOc3ccc(C(=N)NO)cc3)cc2)c(C(C)C)s1 [Example 162, N-hydroxy-4-(5-[4-(5-isopropyl-2-diethylamino-1,3-thiazol-4-yl)phenoxy]pentoxy)-benzamidine], the inhibition at 1 µM [1] is reported as 87.4%.
Work on CN(C)c1nc(-c2ccc(OCCCCCOc3ccc(C(=N)NO)cc3)cc2)c(CC2CCCC2)s1 [Example 163, N-hydroxy-4-(5-[4-(5-cyclopentylmethyl-2-dimethylamino-1,3-thiazol-4-yl)phenoxy]pentoxy)-benzamidine] yielded an inhibition at 1 µM [1] of 88.1%.
Cc1sc(N2CCCCC2)nc1-c1ccc(OCCCCCOc2ccc(C(=N)NO)cc2)cc1 [Example 164, N-hydroxy-4-(5-[4-(5-methyl-2-piperdino-1,3-thiazol-4-yl)phenoxy]pentoxy)-benzamidine] was tested, and the “% inhibitory activity” value [2] was 67.4%.
CN1CCN(c2nc(-c3ccc(OCCCCCOc4ccc(C(=N)NO)cc4)cc3)c(CC3CCCC3)s2)CC1 [Example 170, N-hydroxy-4-(5-(4-[5-cyclopentylmethyl-2-(4-methylpiperazino)-1,3-thiazol-4-yl]phenoxy)-pentoxy)-benzamidine] gave an inhibition at 1 µM [1] of 93.9%.

Reference: patent publication US8178688B2, “Benzamidine derivatives, process for the preparation thereof and pharmaceutical composition comprising the same” (Dong Wha Pharmaceutical Co., Ltd., priority 2004, dated 2012)
